Results on 1 compound are retold here after patent US7767625B2 (dated 2010).

Molecules are shown by their SMILES.

For `C=Cc1c(NC(=O)c2cn(C)nc2C(F)(F)F)cccc1C(C)(C)C`, the melting point fell in the range of 118 to 119 °C.
